In patent US6534486B1, “2-(purin-9-yl)-Tetrahydrofuran-3,4-diol derivatives” (SmithKline Beecham Corporation, priority 1998, dated 2003):

What was measured:
Type in all cases: cell-based
Conditions in all cases: ratio of EC50 to that of NECA, CHO cells transfected with human receptor, SPAP readout
[1] = target: T1, human adenosine 3 receptor (Homo sapiens, UniProt P0DMS8); assay: Agonist activity at adenosine 3 receptor, CHO cells with CRE-SPAP reporter (forskolin-enhanced cAMP)
T1 sequence (P0DMS8 1-318): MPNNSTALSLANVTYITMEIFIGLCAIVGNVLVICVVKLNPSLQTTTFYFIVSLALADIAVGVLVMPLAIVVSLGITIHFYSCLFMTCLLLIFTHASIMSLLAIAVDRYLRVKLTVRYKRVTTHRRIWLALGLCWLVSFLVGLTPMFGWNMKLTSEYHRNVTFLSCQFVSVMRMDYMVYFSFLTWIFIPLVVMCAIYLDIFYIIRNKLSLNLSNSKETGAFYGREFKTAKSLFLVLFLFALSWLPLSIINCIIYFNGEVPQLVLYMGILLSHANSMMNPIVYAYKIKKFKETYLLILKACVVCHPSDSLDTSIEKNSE
Description: (§1) (1) Agonist activity against adenosine 2a, adenosine 1 and adenosine 3 receptor subtypes.
(§2) Agonist selectivity of compounds against other human adenosine receptors was determined using Chinese hamster ovary (CHO) cells transfected with the gene for the relevant human adenosine receptor following a method based on that of Castanon and Spevak, 1994. The CHO cells were also transfected with cyclic AMP response elements promoting the gene for secreted placental alkaline phosphatase (SPAP) (Wood, 1995). The effect of test compounds was determined by their effects on basal levels of cAMP (A2a) or on forskolin-enhanced cAMP (A1 and A3) as reflected by changes in levels of SPAP. EC50 values for compounds were then determined as a ratio to that of the non-selective agonist N-ethyl carboxamide adenosine (NECA).

[2] = target: T2, human adenosine 1 receptor (Homo sapiens, UniProt P30542); assay: Agonist activity at adenosine 1 receptor, CHO cells with CRE-SPAP reporter (forskolin-enhanced cAMP)
T2 sequence (P30542 1-326): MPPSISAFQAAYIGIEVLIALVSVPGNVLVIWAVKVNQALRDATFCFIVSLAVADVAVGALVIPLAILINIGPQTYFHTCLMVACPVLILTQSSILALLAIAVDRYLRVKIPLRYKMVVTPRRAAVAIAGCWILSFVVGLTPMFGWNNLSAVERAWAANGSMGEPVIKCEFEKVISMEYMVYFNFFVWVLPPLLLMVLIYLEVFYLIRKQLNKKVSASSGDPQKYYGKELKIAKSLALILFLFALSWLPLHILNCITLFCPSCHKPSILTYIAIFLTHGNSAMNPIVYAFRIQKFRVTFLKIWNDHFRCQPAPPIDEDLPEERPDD
Description: as §1, §2

[3] = target: human adenosine 2a receptor (Homo sapiens, UniProt P29274); assay: Agonist activity at adenosine 2a receptor, CHO cells with CRE-SPAP reporter (basal cAMP)
human adenosine 2a receptor, sequence (P29274 whole entry): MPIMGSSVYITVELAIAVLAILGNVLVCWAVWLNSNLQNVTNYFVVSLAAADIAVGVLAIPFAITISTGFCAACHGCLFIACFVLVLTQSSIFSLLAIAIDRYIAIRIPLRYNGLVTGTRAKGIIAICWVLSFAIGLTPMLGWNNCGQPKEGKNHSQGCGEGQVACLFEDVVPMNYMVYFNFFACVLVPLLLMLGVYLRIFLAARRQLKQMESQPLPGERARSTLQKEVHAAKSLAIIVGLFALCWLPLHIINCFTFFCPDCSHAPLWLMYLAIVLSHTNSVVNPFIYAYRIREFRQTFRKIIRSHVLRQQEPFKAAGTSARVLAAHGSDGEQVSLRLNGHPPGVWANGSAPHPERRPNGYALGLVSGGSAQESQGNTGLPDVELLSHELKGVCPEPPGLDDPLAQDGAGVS
Description: as §1, §2

| Compound | A3, EC50 values as a ratio of that of NECA [1] | A1, EC50 values as a ratio of that of NECA [2] | A2a, EC50 values as a ratio of that of NECA [3] |
| --- | --- | --- | --- |
| Cn1cnc(CCNc2nc(NCC(c3ccccc3)c3ccccc3)c3ncn(C4OC(Cn5nccn5)C(O)C4O)c3n2)c1 [Example 3, (2R,3R,4S,5R)-2-{6-(2,2-Diphenyl-ethylamino)-2-[2-(1-methyl-1-H-imidazol-4-yl)-ethylamino]-purin-9-yl}-5-[1,2,3]triazol-2-ylmethyl-tetrahydro-furan-3,4-diol diformate] | >147 | 3038.8 | 1.31 |
| O=CO.O[C@@H]1[C@H](O)[C@@H](Cn2nccn2)O[C@H]1n1cnc2c(NCC(c3ccccc3)c3ccccc3)nc(NCCN3CCOCC3)nc21 [Example 4, (2R,3R,4S,5R)-2-[6-(2,2-Diphenyl-ethylamino)-2-(2-morpholin-4-yl-ethylamino)-purin-9-yl]-5-[1,2,3]triazol-2-ylmethyl-tetrahydro-furan-3,4-diol formate] | >174 | 1014 | 16.9 |
| OC1C(Cn2cncn2)OC(n2cnc3c(NCC(c4ccccc4)c4ccccc4)nc(NC4CCNC4)nc32)C1O [Example 2, (2R,3R,4S,5R)-2-[6-(2,2-Diphenyl-ethylamino)-2-(pyrrolidin-3R-ylamino)-purin-9-yl]-5-[1,2,4]triazol-1-ylmethyl-tetrahydro-furan-3,4-diol diformate] | >152 | >8479 | 14.4 |
| N[C@H]1CC[C@H](Nc2nc(NCC(c3ccccc3)c3ccccc3)c3ncn([C@@H]4O[C@H](Cn5nccn5)[C@@H](O)[C@H]4O)c3n2)CC1.O=CO [Example 1, (2R,3R,4S, 5R)-2-[2-(trans-4-Amino-cyclohexylamino)6-(2,2-diphenyl-ethylamino)-purin-9-yl]-5-[1,2,3]triazol-2-ylmethyl-tetrahydro-furan-3,4-diol formate] | >656 | >=3969 | 17.1 |

More lines, now with the values ahead:

| A3, EC50 values as a ratio of that of NECA [1] | A1, EC50 values as a ratio of that of NECA [2] | A2a, EC50 values as a ratio of that of NECA [3] | Compound |
| --- | --- | --- | --- |
| >270 | 8479 | 13.46 | Cn1cnc(CCNc2nc(NCC(c3ccccc3)c3ccccc3)c3ncn([C@@H]4O[C@H](CN5C(=O)CNC5=O)[C@@H](O)[C@H]4O)c3n2)c1.O=CO.O=CO [Example 5, 3-(5R-{6-(2,2-Diphenyl-ethylamino)-2-[2-(1-methyl-1-H-imidazol-4-yl)-ethylamino]-purin-9-yl}3S,4R-dihydroxy-tetrahydro-furan-2R-ylmethyl)-imidazolidine-2,4-dione diformate] |
| >274 | >=3397 | 23.7 | OC1CCCC1Nc1nc(NCC(c2ccccc2)c2ccccc2)c2ncn(C3OC(Cn4cncn4)C(O)C3O)c2n1 [Example 6, (2R,3R,4S,5R)-2-[6-(2,2-Diphenyl-ethylamino)-2-(2R-hydroxy-cyclopent-(R)-ylamino)-purin-9-yl]-5-[1,2,4]triazol-1-ylmethyl-tetrahydro-furan-3,4-diol format] |
